Test results from ChEMBL document CHEMBL5126527, “Emerging targeted protein degradation tools for innovative drug discovery: From classical PROTACs to the novel and beyond” (Eur J Med Chem, 2022).

How the values were obtained:
MOLM-14 = experiment: Cytotoxicity against human MOLM-14 cells assessed as inhibition of cell growth incubated for 72 hrs by alamar blue assay; assay type: functional, cell-based; details: MOLM-14, 72 h
[1] = molecular target: Protein cereblon/Tyrosine-protein kinase BTK (Homo sapiens, UniProt Q06187+Q96SW2); experiment: Protac activity at CRBN/BTK in human MOLM-14 cells assessed as induction of BTK degradation incubated for 24 hrs by Western blot analysis; assay type: cell-based
[2] = molecular target: E3 ubiquitin-protein ligase Mdm2 (Homo sapiens, UniProt Q00987); experiment: Binding affinity to human MDM2 assessed as inhibition constant by competitive binding based fluorescence polarization analysis
A549 = experiment: Antiproliferative activity against human A549 cells assessed as cell growth inhibition measured after 72 hrs by CCK-8 assay; assay type: functional, cell-based; details: A549, 72 h

E3 ubiquitin-protein ligase Mdm2, sequence (Q00987 whole entry): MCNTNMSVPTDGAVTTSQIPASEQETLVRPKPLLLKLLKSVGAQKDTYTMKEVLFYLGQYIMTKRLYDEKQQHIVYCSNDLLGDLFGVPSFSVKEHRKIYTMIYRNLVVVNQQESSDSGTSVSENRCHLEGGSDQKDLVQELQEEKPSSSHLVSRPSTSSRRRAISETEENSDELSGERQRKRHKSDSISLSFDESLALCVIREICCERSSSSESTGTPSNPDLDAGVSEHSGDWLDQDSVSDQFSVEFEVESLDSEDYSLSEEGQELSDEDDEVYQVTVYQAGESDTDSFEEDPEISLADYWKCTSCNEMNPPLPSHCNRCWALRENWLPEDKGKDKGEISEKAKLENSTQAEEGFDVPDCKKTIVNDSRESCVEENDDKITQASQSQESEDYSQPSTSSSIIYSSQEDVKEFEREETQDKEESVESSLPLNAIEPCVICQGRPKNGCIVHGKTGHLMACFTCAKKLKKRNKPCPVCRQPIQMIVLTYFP
Protein cereblon/Tyrosine-protein kinase BTK, sequence (Q06187 whole entry): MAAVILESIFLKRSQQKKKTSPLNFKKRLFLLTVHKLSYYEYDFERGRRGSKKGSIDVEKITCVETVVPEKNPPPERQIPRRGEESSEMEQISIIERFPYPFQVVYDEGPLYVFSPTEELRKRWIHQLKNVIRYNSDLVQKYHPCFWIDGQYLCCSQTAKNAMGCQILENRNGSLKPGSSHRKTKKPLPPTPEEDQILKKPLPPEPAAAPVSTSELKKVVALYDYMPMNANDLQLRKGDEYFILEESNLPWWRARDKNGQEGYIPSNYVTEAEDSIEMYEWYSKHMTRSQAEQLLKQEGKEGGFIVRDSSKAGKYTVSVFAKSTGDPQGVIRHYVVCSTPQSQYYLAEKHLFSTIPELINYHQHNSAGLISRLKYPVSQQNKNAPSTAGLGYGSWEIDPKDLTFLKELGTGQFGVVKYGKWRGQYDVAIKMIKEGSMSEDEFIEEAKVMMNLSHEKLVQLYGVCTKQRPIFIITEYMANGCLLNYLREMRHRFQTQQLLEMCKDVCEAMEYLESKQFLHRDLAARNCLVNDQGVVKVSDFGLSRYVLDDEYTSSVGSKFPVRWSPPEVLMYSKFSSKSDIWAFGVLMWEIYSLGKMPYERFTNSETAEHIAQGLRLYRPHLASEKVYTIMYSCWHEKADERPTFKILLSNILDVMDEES
Protein cereblon/Tyrosine-protein kinase BTK, sequence (Q96SW2 whole entry): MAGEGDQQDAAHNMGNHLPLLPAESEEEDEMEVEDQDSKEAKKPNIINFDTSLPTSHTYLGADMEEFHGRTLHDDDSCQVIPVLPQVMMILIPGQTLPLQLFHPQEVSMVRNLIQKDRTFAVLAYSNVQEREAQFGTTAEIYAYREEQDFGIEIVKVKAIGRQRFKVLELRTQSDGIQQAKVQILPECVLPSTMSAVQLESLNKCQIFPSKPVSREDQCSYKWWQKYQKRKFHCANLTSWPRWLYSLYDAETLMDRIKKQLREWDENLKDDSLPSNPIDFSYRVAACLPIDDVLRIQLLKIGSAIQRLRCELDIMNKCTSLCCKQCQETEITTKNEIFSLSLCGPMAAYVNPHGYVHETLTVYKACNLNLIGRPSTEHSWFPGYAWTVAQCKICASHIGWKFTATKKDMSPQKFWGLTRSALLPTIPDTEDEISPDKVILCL

CN(CCCNC(=O)CNc1cccc2c1C(=O)N(C1CCC(=O)NC1=O)C2=O)C(C)(C)C=C(C#N)C(=O)N1CCC[C@@H](n2nc(-c3ccc(Oc4ccccc4)cc3)c3c(N)ncnc32)C1 (some centres undefined)
IC50 (MOLM-14): 300 nM
EC50 [1]: 6.6 nM

CCOc1cc(C(C)(C)C)ccc1C1=NC(c2ccc(Cl)cc2)C(c2ccc(Cl)cc2)N1C(=O)N1CCN(CC(=O)NCCOCCOCCOCCNC(=O)CN2CCN(C(=O)N3C(c4ccc(C(C)(C)C)cc4OCC)=NC(c4ccc(Cl)cc4)C3c3ccc(Cl)cc3)CC2=O)C(=O)C1 (centres undefined)
Ki [2]: 100 nM
IC50 (A549): 1000 nM
